For one test, the target named is T1, C-X-C chemokine receptor type 1 (Homo sapiens, UniProt P25024). Note: in other assays of this panel Not Active means under 50% inhibition at 10 µM.
T1 sequence (P25024 whole entry): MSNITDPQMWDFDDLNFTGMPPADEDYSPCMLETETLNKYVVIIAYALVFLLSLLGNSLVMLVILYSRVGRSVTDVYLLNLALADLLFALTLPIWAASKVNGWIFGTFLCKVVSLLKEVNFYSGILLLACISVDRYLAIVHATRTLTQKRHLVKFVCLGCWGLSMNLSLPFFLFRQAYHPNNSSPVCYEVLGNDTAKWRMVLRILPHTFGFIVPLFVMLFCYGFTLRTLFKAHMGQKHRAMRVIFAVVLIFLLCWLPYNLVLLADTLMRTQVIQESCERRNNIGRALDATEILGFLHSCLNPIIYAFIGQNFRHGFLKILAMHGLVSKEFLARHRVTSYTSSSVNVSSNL
Conditions: not given
Chain of 5-hydroxytryptamine receptor 6 (P50406 whole entry): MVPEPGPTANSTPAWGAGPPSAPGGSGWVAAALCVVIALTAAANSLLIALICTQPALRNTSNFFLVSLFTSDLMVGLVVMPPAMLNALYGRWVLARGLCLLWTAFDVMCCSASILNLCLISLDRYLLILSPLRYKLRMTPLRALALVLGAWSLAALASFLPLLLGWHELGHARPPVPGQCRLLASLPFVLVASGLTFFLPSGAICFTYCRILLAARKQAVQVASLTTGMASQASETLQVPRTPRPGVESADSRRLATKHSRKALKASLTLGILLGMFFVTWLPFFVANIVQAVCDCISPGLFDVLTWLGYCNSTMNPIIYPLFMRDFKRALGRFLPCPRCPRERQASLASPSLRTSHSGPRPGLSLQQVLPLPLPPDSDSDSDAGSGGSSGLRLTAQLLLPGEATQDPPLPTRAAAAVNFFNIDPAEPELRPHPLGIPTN
As for `O=C(Nc1ccc(Br)cc1)c1cc(Br)cc(Br)c1O` [TRIBROMSALAN], the IC50 entry is given as “Not Active”.
In the case of `CC(c1cc2ccccc2s1)N(O)C(N)=O` (stereo unspecified) [ZILEUTON], the IC50 result is reported as “Not Active”.
Take MANGANESE CHLORIDE ANHYDROUS: the IC50 result is “Not Active” and the Ki entry is listed as “Not Active”.
With SODIUM ORTHOVANAD, the IC50 result is “Not Active” and the Ki result is reported as “Not Active”.

The target of another test is T2, Cathepsin G (Homo sapiens, UniProt P08311).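 Note: inhibition of Cathepsin G enzyme activity, tested on an AMC-conjugated peptide substrate; in other assays of this panel Not Active means under 50% inhibition at 10 µM.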
T2 sequence (P08311 whole entry): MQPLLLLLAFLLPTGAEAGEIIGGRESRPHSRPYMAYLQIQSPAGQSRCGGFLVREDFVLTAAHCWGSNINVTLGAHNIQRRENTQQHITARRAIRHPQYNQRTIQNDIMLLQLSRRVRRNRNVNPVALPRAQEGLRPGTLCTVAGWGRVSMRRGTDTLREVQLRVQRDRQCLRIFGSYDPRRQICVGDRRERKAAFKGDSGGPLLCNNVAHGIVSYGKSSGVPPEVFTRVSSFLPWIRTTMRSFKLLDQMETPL
Format: tissue-based. As to conditions: neutrophil.
As for `O=C(Nc1ccc(Br)cc1)c1cc(Br)cc(Br)c1O` [TRIBROMSALAN], the IC50 entry is reported as “Not Active”.
On the same count and under the same terms, the entry for `CC(c1cc2ccccc2s1)N(O)C(N)=O` (stereo unspecified) [ZILEUTON] is “Not Active”.
As to MANGANESE CHLORIDE ANHYDROUS, the IC50 entry is on record as “Not Active” and the Ki entry was “Not Active”.
Turning to SODIUM ORTHOVANAD, the IC50 entry was “Not Active” and the Ki result is listed as “Not Active”.

A further test addresses T3, B2 bradykinin receptor (Homo sapiens, UniProt P30411).
T3 sequence (P30411 whole entry): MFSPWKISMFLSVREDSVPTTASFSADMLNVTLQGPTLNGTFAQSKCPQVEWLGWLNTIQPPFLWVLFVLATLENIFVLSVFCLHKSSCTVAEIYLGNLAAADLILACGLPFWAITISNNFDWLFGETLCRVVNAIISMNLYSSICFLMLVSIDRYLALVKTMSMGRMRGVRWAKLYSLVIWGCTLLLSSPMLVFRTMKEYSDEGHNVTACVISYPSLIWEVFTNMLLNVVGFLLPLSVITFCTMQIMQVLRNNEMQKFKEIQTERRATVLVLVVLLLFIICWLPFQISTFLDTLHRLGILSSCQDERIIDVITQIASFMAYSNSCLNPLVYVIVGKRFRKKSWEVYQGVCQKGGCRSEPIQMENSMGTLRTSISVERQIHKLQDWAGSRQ
Format: cell membranes, Membrane. As to conditions: chem-1.
In the case of `O=C(Nc1ccc(Br)cc1)c1cc(Br)cc(Br)c1O` [TRIBROMSALAN], the IC50 result was “Not Active”.
As for `CC(c1cc2ccccc2s1)N(O)C(N)=O` (stereo unspecified) [ZILEUTON], the IC50 result is “Not Active”.
Consider MANGANESE CHLORIDE ANHYDROUS, for which the IC50 entry was “Not Active” and the Ki result is on record as “Not Active”.
On to SODIUM ORTHOVANAD, for which the IC50 entry is recorded as “Not Active” and the Ki entry is “Not Active”.

Test system in a further test: not listed separately
In words: DRUGMATRIX: GABAA, Flunitrazepam, Central radioligand binding (ligand: [3H] Flunitrazepam). Format: cell membranes, Rattus norvegicus, Wistar, Brain, Membrane. As to conditions: Not Active = under 50% inhibition at 10 µM.
Regarding `O=C(Nc1ccc(Br)cc1)c1cc(Br)cc(Br)c1O` [TRIBROMSALAN], the IC50 entry is on record as “Not Active” and the Ki result is on record as “Not Active”.
Take `CC(c1cc2ccccc2s1)N(O)C(N)=O` (stereo unspecified) [ZILEUTON]: the IC50 entry is on record as “Not Active” and the Ki entry is recorded as “Not Active”.
For MANGANESE CHLORIDE ANHYDROUS, the IC50 entry is recorded as “Not Active” and the Ki entry is recorded as “Not Active”.
As to SODIUM ORTHOVANAD, the IC50 result is “Not Active” and the Ki result is on record as “Not Active”.

In the next test the target is Nitric oxide synthase 1 (Rattus norvegicus, UniProt P29476). Format: tissue-based, Cerebellum. Note: in other assays of this panel Not Active means under 50% inhibition at 10 µM.
Chain of Nitric oxide synthase 1 (P29476 whole entry): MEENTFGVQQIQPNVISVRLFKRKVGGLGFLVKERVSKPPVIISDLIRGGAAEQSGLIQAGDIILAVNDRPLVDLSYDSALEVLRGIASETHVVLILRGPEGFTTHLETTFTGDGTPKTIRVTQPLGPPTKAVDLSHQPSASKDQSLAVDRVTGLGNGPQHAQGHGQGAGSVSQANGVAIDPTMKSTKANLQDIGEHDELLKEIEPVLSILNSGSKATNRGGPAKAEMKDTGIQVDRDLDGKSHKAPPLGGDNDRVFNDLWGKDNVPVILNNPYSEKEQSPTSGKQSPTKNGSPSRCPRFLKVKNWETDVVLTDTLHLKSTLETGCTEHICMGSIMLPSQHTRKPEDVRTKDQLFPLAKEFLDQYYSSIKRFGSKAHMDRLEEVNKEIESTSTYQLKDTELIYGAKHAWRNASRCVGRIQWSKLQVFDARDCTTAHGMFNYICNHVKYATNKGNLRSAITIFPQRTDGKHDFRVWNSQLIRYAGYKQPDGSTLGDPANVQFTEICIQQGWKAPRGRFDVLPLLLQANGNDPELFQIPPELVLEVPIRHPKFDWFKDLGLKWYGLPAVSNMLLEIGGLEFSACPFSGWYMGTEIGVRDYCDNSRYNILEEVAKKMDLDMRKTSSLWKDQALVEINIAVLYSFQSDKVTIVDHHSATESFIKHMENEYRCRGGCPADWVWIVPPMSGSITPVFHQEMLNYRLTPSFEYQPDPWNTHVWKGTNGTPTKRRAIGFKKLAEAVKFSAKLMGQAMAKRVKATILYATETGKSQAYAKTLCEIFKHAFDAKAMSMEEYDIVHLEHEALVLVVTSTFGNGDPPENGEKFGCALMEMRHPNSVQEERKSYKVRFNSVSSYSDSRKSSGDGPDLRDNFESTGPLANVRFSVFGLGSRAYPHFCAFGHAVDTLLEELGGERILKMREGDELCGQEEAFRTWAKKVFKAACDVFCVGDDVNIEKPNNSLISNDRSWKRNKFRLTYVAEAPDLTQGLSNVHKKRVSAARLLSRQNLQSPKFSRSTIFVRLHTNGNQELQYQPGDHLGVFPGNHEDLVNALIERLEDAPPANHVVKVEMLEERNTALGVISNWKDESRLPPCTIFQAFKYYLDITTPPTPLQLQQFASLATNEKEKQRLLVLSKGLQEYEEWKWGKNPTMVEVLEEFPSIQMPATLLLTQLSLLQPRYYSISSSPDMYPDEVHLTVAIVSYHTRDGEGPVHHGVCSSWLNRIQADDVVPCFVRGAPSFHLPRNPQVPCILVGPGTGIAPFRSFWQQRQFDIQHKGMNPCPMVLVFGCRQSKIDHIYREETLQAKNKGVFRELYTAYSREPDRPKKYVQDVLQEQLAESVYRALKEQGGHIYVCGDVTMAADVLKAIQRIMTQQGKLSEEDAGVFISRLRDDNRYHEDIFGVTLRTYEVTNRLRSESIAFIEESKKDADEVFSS
Conditions: not given
Consider `O=C(Nc1ccc(Br)cc1)c1cc(Br)cc(Br)c1O` [TRIBROMSALAN], for which the IC50 result is listed as “Not Active”.
In the case of `CC(c1cc2ccccc2s1)N(O)C(N)=O` (stereo unspecified) [ZILEUTON], the IC50 entry is “Not Active”.
MANGANESE CHLORIDE ANHYDROUS: the IC50 result was “Not Active” and the Ki result is on record as “Not Active”.
On to SODIUM ORTHOVANAD, for which the IC50 entry is given as “Not Active” and the Ki entry was “Not Active”.

The next test concerns the target 5-hydroxytryptamine receptor 6 (Homo sapiens, UniProt P50406). Format: cell membranes, HeLa, Membrane. Particulars: hela. Note: in other assays of this panel Not Active means under 50% inhibition at 10 µM.
Take `O=C(Nc1ccc(Br)cc1)c1cc(Br)cc(Br)c1O` [TRIBROMSALAN]: the IC50 entry is reported as “Not Active”.
For the molecule `CC(c1cc2ccccc2s1)N(O)C(N)=O` (stereo unspecified) [ZILEUTON], the IC50 result is “Not Active”.
On to MANGANESE CHLORIDE ANHYDROUS, for which the IC50 entry is on record as “Not Active” and the Ki entry is on record as “Not Active”.
As for SODIUM ORTHOVANAD, the IC50 entry was “Not Active” and the Ki result was “Not Active”.

Test system in the next test: not listed separately
Kind of test: DRUGMATRIX: Phosphodiesterase PDE4 enzyme inhibition (substrate: [3H]cAMP + cAMP). As to conditions: u-937; Not Active = under 50% inhibition at 10 µM.
For the molecule `O=C(Nc1ccc(Br)cc1)c1cc(Br)cc(Br)c1O` [TRIBROMSALAN], the IC50 entry was “Not Active” and the Ki result is listed as “Not Active”.
On to `CC(c1cc2ccccc2s1)N(O)C(N)=O` (stereo unspecified) [ZILEUTON], for which the IC50 result is recorded as “Not Active” and the Ki result is on record as “Not Active”.
On to MANGANESE CHLORIDE ANHYDROUS, for which the IC50 result is recorded as “Not Active” and the Ki result is “Not Active”.
For SODIUM ORTHOVANAD, the IC50 entry is reported as “Not Active” and the Ki entry was “Not Active”.

The values are drawn from ChEMBL document CHEMBL1909046, “DrugMatrix in vitro pharmacology data”.
